{"source": "patent US6375961B1", "about": "“Cosmetic skin care compositions containing cumic alcohol” (Unilever Home & Personal Care (USA), division of Conopoco, …, priority 1999, dated 2002)", "format_in_all_cases": "cell-based", "key": {"[1]": {"tested_on": "human keratinocytes", "assay": "Lipid analysis (ceramides, TLC densitometry) in keratinocytes"}, "[2]": {"tested_on": "human keratinocytes", "assay": "Transglutaminase (TG-1) assay in keratinocytes", "procedure": "Normal human keratinocytes, isolated from neonatal foreskin by trypsin treatment, were grown in Dulbecco's Modified Eagles Medium (DMEM, Life Technologies. Grand Island, New York) with 10% fetal bovine serum in the 10 presence of irradiated mouse fibroblasts for establishing dividing keratinocyte colonies. Cells were incubated until their second passage and stored at −70 ° C. for future use. All incubations took place at 37 ° C. with 5% CO2. Frozen second passage keratinocytes were thawed and plated in T−175 flasks (Corning. Corning, N.Y.) with DMEM and grown for five days. After reaching 80% confluence, they were trypsinized and seeded into 6-well plates containing keratinocyte growth medium (KGM, Clonetics, San Diego, Calif.) with 0.15 mM calcium. Keratinocytes were placed in KGM (2 ml per well) at 0.2 million cells/plate in 6-well plates and grown for four or five days until the cells reached approximately 20% confluence. […] One set of triplicate wells was left untreated to serve as control. After three days of incubation, cells were washed thoroughly with phosphate buffered saline (PBS, 10 mM sodium phosphate, 138 mM sodium choride, 2.7 mM potassium chloride, pH 7.4) and placed at −70 °C. for 2 hours. Cells were then thawed for two hours. The DNA content of cells was quantified by using the DNA-binding fluorophore, bis-benzimidazole (Hoechst 33258) and measuring the specific fluoroescence of the DNA-bound fluorophore (360 nm excitation, 450 nm emission). Cellular TG-1 levels were determined by using a transglutaminase-1 (TG-1) specific monoclonal antibody as the primary antibody (BC1, Amersham, UK) and a peroxidase labeled rabbit antimouse IgG as the secondary antibody (Amersham, UK). The plates were blocked at room temperature with 5% nonfat milk in Tris-buffered saline (TBS, 10 mM Tris, 150 mM NaCL, pH 8.0) for one hour followed by two hours incubation with the primary antibody (1:4000 dilution) in 1% milk/TBS at room temperature. After rinsing the plates three times with 1% milk/TDS containing […] Tween 20 (Bio-Rad, Hercules, Calif.), the plates were incubated with a 1:4000 dilution of the secondary antibody at room temperature for two hours. The plates were then rinsed three times with 1% milk/0.05% Tween 20/TBS and three times with PBS. Color was developed by incubation with o-phenylene-diamine (Sigma, St. Louis. Mo.) and hydrogen peroxide (Sigma) dissolved in a 1:1 mixture of 0.2 M dibasic sodium phosphate (Sigma) and 0.1 M citric acid at pH 5.0(Sigma). Solutions were transferred to 4 ml plastic cuvets (Fisher Scientific, Pittsburgh Pa.) and the absorbance was read at 492 nm on an Ultraspec 3000 spectrophotometer (Pharmacia, Piscataway N.J.) and TG-1 levels were expressed as absorbence/DNA fluorescence. Concentrations used in the examples below are of cumic alcohol in a corn oil droplet. The in vitro concentration may not be relevant to in vivo concentration because there is partitioning between oil and culture medium and the medium concentration of the active is not The oil droplet concentration of the active. For the cumic alcohol to elicit its effect on the cultured cells, it must diffuse out of the corn oil into the culture medium where it is then accessible to the cells. The cumic alcohol concentration in the culture medium is therefore considerably less than the concentration in the corn oil droplet."}, "[3]": {"tested_on": "human keratinocytes", "assay": "Glucose uptake assay (3H 2-deoxy-glucose) in keratinocytes", "procedure": "Normal human keratinocytes, isolated from neonatal foreskin by trypsin treatment, were grown in Dulbecco's Modified Eagles Medium (DMEM, Life Technologies. Grand Island, New York) with 10% fetal bovine serum in the 10 presence of irradiated mouse fibroblasts for establishing dividing keratinocyte colonies. Cells were incubated until their second passage and stored at −70 ° C. for future use. All incubations took place at 37 ° C. with 5% CO2. Frozen second passage keratinocytes were thawed and plated in T−175 flasks (Corning. Corning, N.Y.) with DMEM and grown for five days. After reaching 80% confluence, they were trypsinized and seeded into 6-well plates containing keratinocyte growth medium (KGM, Clonetics, San Diego, Calif.) with 0.15 mM calcium. Keratinocytes were plated in KGM medium at either 0.5 or 1 million cells/plate in six well plates and incuoated for 4 days. The medium was then aspirated, and the wells were rinsed twice with Phosphate Buffered Saline (PBS), then the plates were incubated (1 mL/well) for 24 hours. The medium was replaced with fresh KBM, 10 ul of corn oil containing cumic alcohol at various concentrations were added and cells were allowed to incubate (for 4 hours at 37C) before 2 μCi of ^3H 2-deoxy-glucose (Amersham, UK) were added to each well. Samples were then incubated for one hour. The medium was aspirated and wells were rinsed three times with PBS before the addition of 500 μL of 0.1N NaOH/well. After 10 minutes of agitation on a shaker, a 25 μL aliquot was removed for protein analysis, and 200 μL were transferred to a scintillation vial containing 5mL Scintillation cocktail (Scintiverse) and counting was performed on a Beckman counter, ^3H-Glucose uptake results were expressed as CPM/μg protein. Concentrations used in the examples below are of cumic alcohol in a corn oil droplet. The in vitro concentration may not be relevant to in vivo concentration because there is partitioning between oil and culture medium and the medium concentration of the active is not The oil droplet concentration of the active. For the cumic alcohol to elicit its effect on the cultured cells, it must diffuse out of the corn oil into the culture medium where it is then accessible to the cells. The cumic alcohol concentration in the culture medium is therefore considerably less than the concentration in the corn oil droplet."}, "[4]": {"tested_on": "human keratinocytes", "assay": "Ascorbate uptake assay (14C-ascorbic acid) in keratinocytes", "procedure": "Normal human keratinocytes, isolated from neonatal foreskin by trypsin treatment, were grown in Dulbecco's Modified Eagles Medium (DMEM, Life Technologies. Grand Island, New York) with 10% fetal bovine serum in the 10 presence of irradiated mouse fibroblasts for establishing dividing keratinocyte colonies. Cells were incubated until their second passage and stored at -70 ° C. for future use. All incubations took place at 37 ° C. with 5% CO2. Frozen second passage keratinocytes were thawed and plated in T-175 flasks (Corning. Corning, N.Y.) with DMEM and grown for five days. After reaching 80% confluence, they were trypsinized and seeded into 6-well plates containing keratinocyte growth medium (KGM, Clonetics, San Diego, Calif.) with 0.15 mM calcium. For this experiment, third passage keratinocytes were plated into a KGM medium (Clonetics, Calif.) containing 0.15 mM calcium. […] Cells were then switched into fresh KBM and were treated with 5% cumic alcohol administered in corn oil (dosed 10 μl corn oil+active at indicated concentration/2 ml media). After 4 hours of incubation, 0.1 μCi/ml of L-^14C-1-ascorbic acid (Amersham, UK) and 50 units of ascorbic oxidase (Sigma) were added to each well and further incubated for 1 hour. The medium was aspirated and wells were rinsed 3 times with PBS before addition of 500 μl of 0.1N NaOH/well. After 10 minutes of agitation on shaker, 25 μL aliquot was removed for protein analysis, and 200 μl were transferred to scintillation vials containing 5 ml of […]. The counting was performed on a Beckman counter (model LS 5801). Ascorbic acid uptake results were expressed as CPM /μg protein. Concentrations used in the examples below are of cumic alcohol in a corn oil droplet. The in vitro concentration may not be relevant to in vivo concentration because there is partitioning between oil and culture medium and the medium concentration of the active is not The oil droplet concentration of the active. […]"}, "[5]": {"details": "Example 2, Experiment 1, cumic alcohol 2.5% in corn oil"}, "[6]": {"details": "Example 2, Experiment 1, cumic alcohol 5% in corn oil"}, "[7]": {"details": "Example 2, Experiment 2, cumic alcohol 2.5% in corn oil"}, "[8]": {"details": "Example 2, cumic alcohol at 2.5 and 5%"}, "[9]": {"details": "Example 4, inactivity at lower concentrations"}}}
{"smiles": "CC(C)c1ccc(CO)cc1", "note": "[CUMIC ALCOHOL, p-isopropylbenzyl alcohol]", "values": [{"measurement": "ceramides % of CONTROL", "setting": "[1]; [5]", "value": 67, "unit": "%"}, {"measurement": "ceramides % of CONTROL", "setting": "[1]; [6]", "value": 156, "unit": "%"}, {"measurement": "ceramides % of CONTROL", "setting": "[1]; [7]", "value": 166, "unit": "%"}, {"measurement": "ceramides % of CONTROL", "setting": "[1]; Example 2, Experiment 2, cumic alcohol 5% in corn oil", "value": 185, "unit": "%"}, {"measurement": "expression of ceramides in comparison to untreated control cells (in words)", "setting": "[1]; [8]", "value": "increased expression"}, {"measurement": "ceramide production (in words)", "setting": "[1]; [9]", "value": "significant increase"}, {"measurement": "TG-1 % of CONTROL", "setting": "[2]; [5]", "value": 117, "unit": "%"}, {"measurement": "TG-1 % of CONTROL", "setting": "[2]; [6]", "value": 180, "unit": "%"}, {"measurement": "TG-1 % of CONTROL", "setting": "[2]; [7]", "value": 145, "unit": "%"}, {"measurement": "expression of transglutaminase-1 in comparison to untreated control cells (in words)", "setting": "[2]; [8]", "value": "increased expression"}, {"measurement": "TG-1 % of CONTROL", "setting": "[2]; Example 4, cumic alcohol 1% in corn oil", "value": 127, "unit": "%"}, {"measurement": "TG-1 % of CONTROL", "setting": "[2]; Example 4, cumic alcohol 2.5% in corn oil", "value": 174, "unit": "%"}, {"measurement": "TG-1 % of CONTROL", "setting": "[2]; Example 4, cumic alcohol 5% in corn oil", "value": 205, "unit": "%"}, {"measurement": "transglutaminase-1 expression (in words)", "setting": "[2]; [9]", "value": "significant increase"}, {"measurement": "glucose uptake % OF CONTROL", "setting": "[3]; cumic alcohol 1% in corn oil droplet", "value": 107, "unit": "%"}, {"measurement": "glucose uptake % OF CONTROL", "setting": "[3]; cumic alcohol 2.5% in corn oil droplet", "value": 185, "unit": "%"}, {"measurement": "glucose uptake % OF CONTROL", "setting": "[3]; cumic alcohol 5% in corn oil droplet", "value": 206, "unit": "%"}, {"measurement": "glucose uptake CPM/ug PROTEIN", "setting": "[3]; cumic alcohol 5% in corn oil droplet (10 ul), 4 h preincubation, 1 h uptake", "value": 40.67, "unit": "CPM/ug PROTEIN"}, {"measurement": "ascorbate uptake % of CONTROL", "setting": "[4]; cumic alcohol 5% in corn oil", "value": 129, "unit": "%"}, {"measurement": "ascorbate uptake CPM/WELL", "setting": "[4]; cumic alcohol 5% in corn oil (10 ul/2 ml media), 4 h preincubation, 1 h uptake", "value": "17235 +− CPM/WELL"}, {"measurement": "uptake of ascorbate in comparison to untreated control cells (in words)", "setting": "[4]; cumic alcohol at 5% in corn oil", "value": "significantly increased uptake"}]}
